For two compounds, Kd results are on record in PMC5973626, “A secreted Heat shock protein 90 of Trichomonas vaginalis” (PLoS Neglected Tropical Diseases, 2018).

Holding throughout (assay type): binding
Experiment [1] deals with T1, TV560 (cytosolic Hsp90, TVAG_153560) (Trichomonas vaginalis, UniProt A2EPR1).
T1 construct: full-length, 6x-His tag fusion expressed in E. coli (721 amino acids)
Nature of the experiment: intrinsic tryptophan fluorescence quenching; also ATPase inhibition (IC50 […]).

The target in experiment [2] is T2, TV910 (Grp94 ortholog, TVAG_378910) (Trichomonas vaginalis, UniProt A2DB82).
T2 construct: 6x-His tag fusion expressed in E. coli
T2 sequence (A2DB82 entry or part of it): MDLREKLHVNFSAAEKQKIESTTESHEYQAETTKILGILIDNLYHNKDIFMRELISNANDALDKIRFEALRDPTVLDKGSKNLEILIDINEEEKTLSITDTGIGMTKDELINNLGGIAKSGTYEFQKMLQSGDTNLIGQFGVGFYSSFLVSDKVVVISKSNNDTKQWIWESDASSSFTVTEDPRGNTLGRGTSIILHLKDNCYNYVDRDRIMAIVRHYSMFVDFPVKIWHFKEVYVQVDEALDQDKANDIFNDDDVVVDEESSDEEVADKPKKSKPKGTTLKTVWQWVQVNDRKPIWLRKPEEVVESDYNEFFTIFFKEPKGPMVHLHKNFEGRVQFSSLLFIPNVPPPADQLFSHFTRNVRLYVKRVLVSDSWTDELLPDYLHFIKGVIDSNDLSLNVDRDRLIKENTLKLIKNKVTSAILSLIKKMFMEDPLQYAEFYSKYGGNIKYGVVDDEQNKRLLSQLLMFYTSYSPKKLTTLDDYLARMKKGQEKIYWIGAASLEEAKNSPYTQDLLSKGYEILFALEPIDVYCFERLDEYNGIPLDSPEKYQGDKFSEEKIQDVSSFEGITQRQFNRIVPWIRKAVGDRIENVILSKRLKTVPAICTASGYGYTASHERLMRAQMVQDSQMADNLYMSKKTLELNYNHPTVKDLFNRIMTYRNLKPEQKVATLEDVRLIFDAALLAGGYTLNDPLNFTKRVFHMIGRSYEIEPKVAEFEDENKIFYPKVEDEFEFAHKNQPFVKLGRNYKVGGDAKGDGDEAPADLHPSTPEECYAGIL
The experiment is described as above.

The target in experiment [3] is T1, TV560 (cytosolic Hsp90, TVAG_153560). Nature of the experiment: intrinsic tryptophan fluorescence quenching; also ATPase kinetics (KM […]).
Experiment [4] has as its target T2, TV910 (Grp94 ortholog, TVAG_378910). Described as above.

T1 sequence (A2EPR1 entry or part of it): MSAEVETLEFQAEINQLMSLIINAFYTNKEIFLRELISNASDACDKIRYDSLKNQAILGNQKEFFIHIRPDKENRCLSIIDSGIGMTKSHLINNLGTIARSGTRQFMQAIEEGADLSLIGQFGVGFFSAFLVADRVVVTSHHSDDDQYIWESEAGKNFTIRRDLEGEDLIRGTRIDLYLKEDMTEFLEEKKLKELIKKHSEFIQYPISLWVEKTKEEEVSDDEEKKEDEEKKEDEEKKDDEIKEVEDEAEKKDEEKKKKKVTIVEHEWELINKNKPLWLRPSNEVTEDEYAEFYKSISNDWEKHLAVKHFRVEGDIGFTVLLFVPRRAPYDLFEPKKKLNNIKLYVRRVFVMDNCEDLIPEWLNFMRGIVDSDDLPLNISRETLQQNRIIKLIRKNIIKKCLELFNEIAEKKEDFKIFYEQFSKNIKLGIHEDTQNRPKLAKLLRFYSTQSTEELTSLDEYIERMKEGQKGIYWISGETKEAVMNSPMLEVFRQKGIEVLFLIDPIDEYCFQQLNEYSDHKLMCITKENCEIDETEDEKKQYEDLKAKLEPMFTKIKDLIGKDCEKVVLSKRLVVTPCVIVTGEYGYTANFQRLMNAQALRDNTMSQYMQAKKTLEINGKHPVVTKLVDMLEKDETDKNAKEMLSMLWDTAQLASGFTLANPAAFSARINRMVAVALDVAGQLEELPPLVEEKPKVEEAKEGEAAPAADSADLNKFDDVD

With `C=CCNC1=C2C[C@@H](C)C[C@H](OC)[C@H](O)[C@@H](C)/C=C(\C)[C@H](OC(N)=O)[C@@H](OC)/C=C\C=C(/C)C(=O)NC(=CC1=O)C2=O` [17-AAG], the Kd turned out to be 11.5 µM in experiment [1] and 15.7 µM in experiment [2].
Consider `Nc1ncnc2c1ncn2[C@@H]1O[C@H](COP(=O)(O)OP(=O)(O)OP(=O)(O)O)[C@@H](O)[C@H]1O` [ATP], for which the Kd in experiment [3] was found to be 538 µM; in experiment [4] it was 722 µM.
